Source: US12077503B2, “Substituted cyclic amides and their use as herbicides” (FMC CORPORATION, priority 2015, dated 2024)

Experiments:
Type in all cases: in vivo
[1] = tested on: ragweed (common ragweed, Ambrosia elatior); experiment: Test A preemergence; settings: Ambrosia artemisiifolia, pre-emergence, 240 h
Procedure, shortened: (§1)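 Seeded soil received test chemicals as a preemergence directed spray, and seedlings at one to two leaves, 2–10 cm tall, received them postemergence, in a non-phytotoxic, surfactant-containing solvent mixture. Pots were held in a greenhouse for approximately 10 d, then rated for injury from 0, no effect, to 100, complete control.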

Kochia (Kochia scoparia) [2] = experiment: Test A preemergence; settings: Bassia scoparia, pre-emergence, 240 h
Procedure, shortened: as §1

[3] = tested on: ryegrass, Italian (Italian ryegrass, Lolium multiflorum); experiment: Test A preemergence; settings: Lolium multiflorum, pre-emergence, 240 h
Procedure, shortened: as §1

[4] = tested on: giant foxtail (Setaria faberii); experiment: Test A preemergence; settings: Setaria faberi, pre-emergence, 240 h
Procedure, shortened: as §1

[5] = tested on: barnyardgrass (Echinochloa crus-galli); experiment: Test A preemergence; settings: Echinochloa crus-galli, pre-emergence, 240 h
Procedure, shortened: as §1

[6] = tested on: pigweed (Amaranthus retroflexus); experiment: Test A preemergence; settings: Amaranthus retroflexus, pre-emergence, 240 h
rice (Oryra sativa) = experiment: Test B flooded paddy test; settings: Oryza sativa, Flood, 250 g ai/ha; scale of 0 to 100 where 0 is no effect and 100 is complete control; read-out: Rice plant response rating
Procedure, shortened: (§2)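 2-leaf plants; pots flooded 3 cm over soil; cpd added to paddy water; depth held; greenhouse 13–15 d; visual rating vs controls, 0 = no effect, 100 = complete control.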

[7] = tested on: sedge, umbrella (small-flower umbrella sedge, Cyperus difformis); experiment: Test B flooded paddy test; settings: Cyperus difformis, Flood, 250 g ai/ha; scale of 0 to 100 where 0 is no effect and 100 is complete control; read-out: Sedge, Umbrella plant response rating
Procedure, shortened: as §2

[8] = tested on: ducksalad (Heteranthera limosa); experiment: Test B flooded paddy test; settings: Heteranthera limosa, Flood, 250 g ai/ha; scale of 0 to 100 where 0 is no effect and 100 is complete control; read-out: Ducksalad plant response rating
Procedure, shortened: as §2

[9] = tested on: barnyardgrass (Echinochloa crus-galli); experiment: Test B flooded paddy test; settings: Echinochloa crus-galli, Flood, 250 g ai/ha; scale of 0 to 100 where 0 is no effect and 100 is complete control; read-out: Barnyardgrass plant response rating
Procedure, shortened: as §2

[10] = tested on: ragweed (common ragweed, Ambrosia elatior); experiment: Test A postemergence; settings: Ambrosia artemisiifolia, post-emergence, 240 h, 125 g ai/ha, Postemergence; visual injury after approximately 10 d; 0 to 100 scale where 0 is no effect and 100 is complete control; read-out: Plant response rating, Ragweed
Procedure, shortened: as §1

Kochia (Kochia scoparia) [11] = experiment: Test A postemergence; settings: Bassia scoparia, post-emergence, 240 h, 125 g ai/ha, Postemergence; visual injury after approximately 10 d; 0 to 100 scale where 0 is no effect and 100 is complete control; read-out: Plant response rating, Kochia
Procedure, shortened: as §1

[12] = tested on: wheat (Triticum aestivum); experiment: Test A postemergence; settings: Triticum aestivum, post-emergence, 240 h, 125 g ai/ha, Postemergence; visual injury after approximately 10 d; 0 to 100 scale where 0 is no effect and 100 is complete control; read-out: Plant response rating, Wheat
Procedure, shortened: as §1

[13] = tested on: ryegrass, Italian (Italian ryegrass, Lolium multiflorum); experiment: Test A postemergence; settings: Lolium multiflorum, post-emergence, 240 h, 125 g ai/ha, Postemergence; visual injury after approximately 10 d; 0 to 100 scale where 0 is no effect and 100 is complete control; read-out: Plant response rating, Ryegrass, Italian
Procedure, shortened: as §1

[14] = tested on: blackgrass (Alopecurus myosuroides); experiment: Test A postemergence; settings: Alopecurus myosuroides, post-emergence, 240 h, 125 g ai/ha, Postemergence; visual injury after approximately 10 d; 0 to 100 scale where 0 is no effect and 100 is complete control; read-out: Plant response rating, Blackgrass
Procedure, shortened: as §1

[15] = tested on: Galium (catchweed bedstraw, Galium aparine); experiment: Test A postemergence; settings: Galium, post-emergence, 240 h, 125 g ai/ha, Postemergence; visual injury after approximately 10 d; 0 to 100 scale where 0 is no effect and 100 is complete control; read-out: Plant response rating, Galium
Procedure, shortened: as §1

[16] = tested on: giant foxtail (Setaria faberii); experiment: Test A postemergence; settings: Setaria faberi, post-emergence, 240 h, 125 g ai/ha, Postemergence; visual injury after approximately 10 d; 0 to 100 scale where 0 is no effect and 100 is complete control; read-out: Plant response rating, Foxtail, Giant
Procedure, shortened: as §1

corn (Zea mays) = experiment: Test A postemergence; settings: Zea mays, post-emergence, 240 h, 125 g ai/ha, Postemergence; visual injury after approximately 10 d; 0 to 100 scale where 0 is no effect and 100 is complete control
Procedure, shortened: as §1

[17] = tested on: barnyardgrass (Echinochloa crus-galli); experiment: Test A postemergence; settings: Echinochloa crus-galli, post-emergence, 240 h, 125 g ai/ha, Postemergence; visual injury after approximately 10 d; 0 to 100 scale where 0 is no effect and 100 is complete control; read-out: Plant response rating, Barnyardgrass
Procedure, shortened: as §1

[18] = tested on: pigweed (Amaranthus retroflexus); experiment: Test A postemergence; settings: Amaranthus retroflexus, post-emergence, 240 h, 125 g ai/ha, Postemergence; visual injury after approximately 10 d; 0 to 100 scale where 0 is no effect and 100 is complete control; read-out: Plant response rating, Pigweed
Procedure, shortened: as §1

With `CCOc1cccc([C@H]2CNC(=O)[C@@H]2C(=O)Nc2cccc(F)c2F)c1` [Compound 950] the pest or weed control at 125 g/ha ([1]; 125 g ai/ha, Preemergence, visual injury rating after approximately 10 d, read-out: Ragweed plant response rating (0 to 100 scale, 0 is no effect, 100 is complete control)) was 0%, the pest or weed control at 500 g/ha ([1]; 500 g ai/ha, preemergence, visual injury rating about 10 d after treatment, 0 to 100 scale (0 no effect, 100 complete control), read-out: Ragweed plant response rating) was 20% and the pest or weed control at 125 g/ha (Kochia (Kochia scoparia) [2]; 125 g ai/ha, Preemergence, visual injury rating after approximately 10 d, read-out: Kochia plant response rating (0 to 100 scale, 0 is no effect, 100 is complete control)) was 50%. The pest or weed control at 500 g/ha (Kochia (Kochia scoparia) [2]; 500 g ai/ha, preemergence, visual injury rating about 10 d after treatment, 0 to 100 scale (0 no effect, 100 complete control), read-out: Kochia plant response rating) was 60%, the pest or weed control at 125 g/ha ([3]; 125 g ai/ha, Preemergence, visual injury rating after approximately 10 d, read-out: Ryegrass, Italian plant response rating (0 to 100 scale, 0 is no effect, 100 is complete control)) was 20% and the pest or weed control at 500 g/ha ([3]; 500 g ai/ha, preemergence, visual injury rating about 10 d after treatment, 0 to 100 scale (0 no effect, 100 complete control), read-out: Ryegrass, Italian plant response rating) was 70%. The pest or weed control at 125 g/ha ([4]; 125 g ai/ha, Preemergence, visual injury rating after approximately 10 d, read-out: Foxtail, Giant plant response rating (0 to 100 scale, 0 is no effect, 100 is complete control)) was 60%, the pest or weed control at 500 g/ha ([4]; 500 g ai/ha, preemergence, visual injury rating about 10 d after treatment, 0 to 100 scale (0 no effect, 100 complete control), read-out: Foxtail, Giant plant response rating) was 90% and the pest or weed control at 125 g/ha ([5]; 125 g ai/ha, Preemergence, visual injury rating after approximately 10 d, read-out: Barnyardgrass plant response rating (0 to 100 scale, 0 is no effect, 100 is complete control)) was 100%. It also gave a pest or weed control at 500 g/ha ([5]; 500 g ai/ha, preemergence, visual injury rating about 10 d after treatment, 0 to 100 scale (0 no effect, 100 complete control), read-out: Barnyardgrass plant response rating) of 100%, a pest or weed control at 125 g/ha ([6]; 125 g ai/ha, Preemergence, visual injury rating after approximately 10 d, read-out: Pigweed plant response rating (0 to 100 scale, 0 is no effect, 100 is complete control)) of 0% and a pest or weed control at 500 g/ha ([6]; 500 g ai/ha, preemergence, visual injury rating about 10 d after treatment, 0 to 100 scale (0 no effect, 100 complete control), read-out: Pigweed plant response rating) of 0%. It also gave a pest or weed control at 250 g/ha (rice (Oryra sativa)) of 0%, a pest or weed control at 250 g/ha [7] of 0% and a pest or weed control at 250 g/ha [8] of 95%. For the same compound, the pest or weed control at 250 g/ha [9] was 65%, the pest or weed control at 125 g/ha [10] was 0% and the pest or weed control at 125 g/ha (Kochia (Kochia scoparia) [11]) was 0%. The plant injury at 125 g/ha [12] was 0%, the pest or weed control at 125 g/ha [13] was 20% and the pest or weed control at 125 g/ha [14] was 0%. The pest or weed control at 125 g/ha [15] was 20%, the pest or weed control at 125 g/ha [16] was 0% and the Corn plant response rating (crop injury, 0 = no effect, 100 = complete kill) at 125 g/ha (corn (Zea mays)) was 0%. The pest or weed control at 125 g/ha [17] was 90% and the pest or weed control at 125 g/ha [18] was 0%.
